This is an account of results in PMC6710349, “Action of Dicumarol on Glucosamine-1-Phosphate Acetyltransferase of GlmU and Mycobacterium tuberculosis” (Frontiers in Microbiology, 2019).

pIC50: −log10 of the molar value.

For this assay, the target named is GlmU (glucosamine-1-phosphate acetyltransferase / N-acetylglucosamine-1-phosphate uridyltransferase) (Mycobacterium tuberculosis, UniProt P9WMN3). Nature of the assay: DTNB colorimetric acetyltransferase assay, with Lineweaver-Burk kinetics. In kind it is biochemical.
Chain of GlmU (glucosamine-1-phosphate acetyltransferase / N-acetylglucosamine-1-phosphate uridyltransferase) (P9WMN3 2-495 limits assumed): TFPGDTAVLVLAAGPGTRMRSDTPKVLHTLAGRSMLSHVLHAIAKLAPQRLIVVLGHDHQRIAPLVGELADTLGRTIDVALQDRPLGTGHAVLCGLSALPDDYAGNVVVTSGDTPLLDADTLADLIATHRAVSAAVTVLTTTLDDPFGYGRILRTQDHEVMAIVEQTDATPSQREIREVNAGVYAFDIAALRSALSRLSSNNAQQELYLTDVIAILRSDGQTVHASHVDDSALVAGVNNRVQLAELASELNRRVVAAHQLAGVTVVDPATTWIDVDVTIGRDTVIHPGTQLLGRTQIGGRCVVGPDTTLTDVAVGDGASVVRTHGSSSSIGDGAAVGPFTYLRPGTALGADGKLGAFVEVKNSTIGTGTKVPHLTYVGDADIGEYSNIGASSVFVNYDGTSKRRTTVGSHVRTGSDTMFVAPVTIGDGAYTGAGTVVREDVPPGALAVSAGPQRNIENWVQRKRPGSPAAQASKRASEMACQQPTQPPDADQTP

For orientation: pIC50 means the IC50 on a negative log10 scale, so that one unit is a factor of ten. High values mean a low IC50, low ones a high IC50. Compound `O=c1oc2ccccc2c(O)c1Cc1c(O)c2ccccc2oc1=O` [compound 22, 3,3′-methylene-bis-4-hydroxycoumarin] gave a pIC50 of 4.86.
